As usually defined, the IC50 is the concentration that inhibits the measured activity by half.

Each structure is given as a SMILES string.

For this experiment, the target named is T1, recombinant human glucagon receptor (Homo sapiens, UniProt P47871).
T1 construct: expressed in transfected cells; host or cells: CHO (Chinese hamster ovary) cells
The experiment is described as follows: Inhibition of glucagon-stimulated intracellular cAMP assay. It counts as cell-based. Particulars: CHO cells expressing recombinant human glucagon receptor, stimulated with 300 pM glucagon. Here is the method: Inhibition of Glucagon-Stimulated Intracellular cAMP Assay
Chinese hamster ovary (CHO) cells expressing the recombinant human glucagon receptor were harvested with the aid of non-enzymatic cell dissociation solution (GIBCO 13151-014). The cells were then pelleted and suspended in the stimulation buffer (1×HBSS, 5 mM Hepes, 0.1% BSA, pH7.4 in presence of complete protease inhibitor and phosphodiesterase inhibitor). The adenylate cyclase assay was conducted following the LANCE cAMP Kit (Perkin Elmer, AD0262) instructions. Briefly, cells were preincubated with anti-cAMP antibody in the stimulation buffer with a final concentration of 3% DMSO for 30 minutes and then stimulated with 300 pM glucagon for 45 minutes. The reaction was stopped by incubating with the detection buffer containing Europium chelate of the Eu-SA/Biotin-cAMP tracer for 20 hours. The fluorescence intensity emitted from the assay was measured at 665 nm using PheraStar instruments. […] Standard cAMP concentrations were conducted concurrently for conversion of fluorescence signal to cAMP level. Data was analyzed using GraphPad Prism. IC50 values were calculated using non-linear regression analysis assuming single site competition. […] Some of the compounds of the invention shown in the examples measured less than about 5 μM in this assay; other examples measured less than about 500 nM; others less than about 100 nM.

T1 sequence (P47871 26-477): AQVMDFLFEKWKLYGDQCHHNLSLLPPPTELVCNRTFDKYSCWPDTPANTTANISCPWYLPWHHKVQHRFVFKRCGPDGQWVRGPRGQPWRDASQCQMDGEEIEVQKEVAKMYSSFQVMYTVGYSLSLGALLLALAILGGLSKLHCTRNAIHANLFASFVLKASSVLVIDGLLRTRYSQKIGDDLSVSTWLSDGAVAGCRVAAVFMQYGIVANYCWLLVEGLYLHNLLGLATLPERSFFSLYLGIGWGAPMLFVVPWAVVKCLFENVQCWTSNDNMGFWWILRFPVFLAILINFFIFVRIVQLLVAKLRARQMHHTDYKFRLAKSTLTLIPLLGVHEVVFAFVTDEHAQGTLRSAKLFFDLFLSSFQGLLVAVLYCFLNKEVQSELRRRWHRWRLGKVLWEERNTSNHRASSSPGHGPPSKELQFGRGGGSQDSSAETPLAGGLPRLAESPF

Turning to `CC(C)(C)CC[C@H](c1ccc(C(=O)NCc2nn[nH]n2)cc1)N1C(=O)C(C2CCCCC2)=NC12CCC(C(C)(C)C)CC2` (some centres unmarked) [Example 9.99], the IC50 is 290 nM.

For the compound `CC[C@H](c1ccc(C(=O)NCCC(=O)O)cc1)N1C(=O)C(N2CCCCC2)=NC12CCC(C(C)(C)C)CC2` (some centres unmarked) [Example 10.4], the IC50 came out at 209 nM.

Source of the values: patent US20130012493A1, “NOVEL SPIRO IMIDAZOLONE DERIVATIVES AS GLUCAGON RECEPTOR ANTAGONISTS, COMPOSITIONS, AND METHODS FOR THEIR USE” (priority 2010, published 2013).
